Reference: patent US9050278B2, “Scavenger of in vivo harmful reactive oxygen species and/or free radicals” (priority 2005, dated 2015)
Read-outs that look alike come from different tables or passages of the source.

Experiments:
PC12 cells [1] = assay: Cell death induced by antimycin A, viable cell count; type: cell-based, Rat
Method: (§1) The cells were cultured with an incubator at 37° C. under 5% CO2.
(§2) The cells were cultured at 37° C. in a sealed state. […] The cells were cultured at 37° C.
(§3) After 24 hours, the number of viable cells having a pyramid-shaped cell form was counted under a phase contrast microscope.
(§4) PC12 cells were cultured in a collagen-coated 24-well cell culture dish (manufactured by IWAKI&Co. Ltd.). […] After 0, 1, 2, and 3 days, the number of viable cells having a pyramid-shaped cell form was counted under a phase contrast microscope.
as §4, with “Cell death was induced by antimycin A or menadione in the same way as in Examples 2 and 3. […] First, PC12” for “PC12”, “24 hours,” for “0, 1, 2, and 3 days,”
as §3

PC12 cells [2] = assay: Cell death induced by menadione, viable cell count; type: cell-based, Rat
Method: as §1, §2, §3, §4
as §4, with “Cell death was induced by antimycin A or menadione in the same way as in Examples 2 and 3. […] First, PC12” for “PC12”, “24 hours,” for “0, 1, 2, and 3 days,”

[3] = Elimination of superoxide by hydrogen water; type: biochemical; conditions: neutral solution saturated with hydrogen molecules, room temperature
Method: (§5) First, 1 l of water was injected into a 5-l pressure-resistant bottle (manufactured by UNICONTROLS. CO., LTD.).
For superoxide (O2^−.), 25× Reaction Buffer, Xanthine Solution, and NBT Solution contained in […] […] Then, a Xanthine oxidase solution was added thereto to thereby generate O2^−.. NBT-diformazan accumulation was measured over time with a spectrophotometer at 550 nm.
(§6) After reaction at room temperature for 30 minutes, absorbance at 415, 400, and 340 nm, respectively, were measured with a spectrophotometer.

cytochrome c = assay: Reduction of cytochrome c in hydrogen water; type: biochemical; conditions: neutral solution saturated with hydrogen molecules, room temperature
Method: as §5, §6

[4] = Reduction of NAD+ in hydrogen water; type: biochemical; conditions: neutral solution saturated with hydrogen molecules, room temperature
Method: as §5, §6

skeletal muscle = system: skeletal muscle
Method: It has been known that strenuous exercise and the sudden stop of exercise generate free radicals and damage various tissues including muscles. […] Rats (Wister Rats, 8 week old, male) were run at a speed of 40 m/min. for 20 minutes. […] After 30 minutes, the rats were slaughtered. The skeletal muscle was excised. […] The method was conducted according to Sakai, Y., Iwamura, Y., Hayashi, J., Yamamoto, N., Ohkoshi, N., Nagata, H., Acute exercise causes mitochondrial DNA deletion in rat skeletal muscle., Muscle and Nerve 22: 256-261, 1999.

[5] = neutral solution saturated with hydrogen molecules, room temperature
[6] = hydrogen pressure of 1 atm and room temperature; cited from earlier work
[7] = system: cerebral cortex-derived primary cultured neuronal cells
Method: Rat cerebral cortex-derived primary cultured cells were used to induce oxidative stress under more physiological conditions.
Rat cerebral cortex-derived primary cultured neuronal cells were prepared from a 16-day-old fetus. The cerebral cortex was cut after meninges removal and digested with a protease mixed solution (SUMILON). The slices were mechanically dissociated with a pipette. Then, the cells were dispersed in a nerve cell culture medium (SUMILON) and seeded at a cell density of 5×10^4 cells/cm^2 in a plate coated with poly-L-lysine. The medium was replaced every three days by Neurobasal Medium (Gibco) containing B-27 (Gibco). The cells cultured for 11 days were used in the experiment. One day before the creation of an oxygen-glucose-deficient state, the medium was replaced by Neurobasal Medium (Gibco) containing B-27 minus AO (Gibco). […] 90% or more of the cells were neuronal cells.
To terminate the oxygen-glucose-deficient state, the medium was replaced again by the medium used before replacement. Culture was further continued at 37° C. in 95% air/5% carbon dioxide atmosphere.
After 10 minutes of the termination of the oxygen-glucose-deficient state, the amount of .OH was measured based on HPF fluorescence. […] To prepare a control, cells were treated with a DMEM medium containing glucose and oxygen, instead of being exposed to an oxygen-glucose-deficient state. […] An average value and standard deviation was determined from 4 independent experiments. **P<0.01.
After 1 day of oxygen-glucose deficiency, the viable neuronal cells were further detected by staining neuron-specific anti-TUJ-1 antibody. […] Average values and standard deviations shown in FIGS. 23 and 24 were determined from 4 independent experiments. ^#<0.0001 in FIG. 23, *P<0.05 in FIG. 24.

[8] = room temperature, neutral conditions, without catalysts, HPF fluorescence
Text: RF-5300PC (manufactured by Shimadzu Corp.) was used in fluorescence intensity measurement.
The .OH was monitored with a spectrofluorometer.

PC12 cells [9] = conditions: antimycin A 10 μg/ml, 0.6 mM hydrogen, 24 hours
Method: (§7) To generate .OH via O2^−., antimycin A was added to cells. […] The cells were cultured at 37° C.
(§8) In .OH detection, HPF (0.4 μM) was added to a cell medium, and the fluorescence image thereof was observed using a confocal laser scanning microscope (FV300 manufactured by Olympus Corp.) at an excitation wavelength of 488 nm and an […] wavelength of 510 nm. MitoTracker Green (1 μM; Molecular Probes) and MitoTracker Red (100 nM; Molecular Probes) were used in the staining of mitochondria. Anti-HNE and anti-8-OH-G antibodies were purchased from Nikken Seil Co., Ltd. Moreover, anti-TUJ-1 and anti-GFAP antibodies were purchased from Babco and Immunon, respectively.
The scale bars in FIGS. 16 and 18 denote 100 μm. Immunostaining intensities with anti-8-OH-G (FIG. 17) and anti-HNE (FIG. 19) antibodies were quantified using NIH Image software. […] Average values and standard deviations were determined from 4 independent experiments. *P<0.05, **P<0.01, ***P<0.001.

[10] = neutral solution saturated with hydrogen molecules, room temperature; remark: listed apart in the source
[11] = Elimination of nitrogen monoxide by hydrogen water; type: biochemical; conditions: neutral solution saturated with hydrogen molecules, room temperature
Method: First, 1 l of water was injected into a 5-l pressure-resistant bottle (manufactured by UNICONTROLS. CO., LTD.). […] After reaction at room temperature for 30 minutes, 1 μM 5-(and -6)-chloromethyl-2′,7′-dichlorodihydrofluorescein diacetate (DCFDH; manufactured by Molecular Probe, USA) was subsequently added thereto. The amount of NO remaining was measured with a fluorescence analyzer (manufactured by TECAN, Austria) at an excitation wavelength of 485 nm. […] After reaction at room temperature for 30 minutes, absorbance at 415, 400, and 340 nm, respectively, were measured with a spectrophotometer.

[12] = Reduction of FAD in hydrogen water; type: biochemical; conditions: neutral solution saturated with hydrogen molecules, room temperature
Method: as §5, §6

[13] = Elimination of hydrogen peroxide by hydrogen water; type: biochemical; conditions: neutral solution saturated with hydrogen molecules, room temperature
Method: as §5
After reaction at room temperature for 30 minutes, 0.2 M phosphate buffer (pH 7.2) containing an equal amount of 20 μM DCFDA was subsequently added thereto. After reaction for 10 minutes, the amount of H2O2 remaining was measured with a fluorescence analyzer at an excitation wavelength of 485 nm.
as §6

[14] = system: ischemia-reperfusion injury in the liver; conditions: untreated 74
Text: Mice (C57BL/6 line, 5 week old, male) were put under general anesthesia by supplying mixed anesthetic gases (oxygen: 0.3 L/min., nitrous oxide: 0.7 L/min., Sevofrane (Maruishi Pharmaceutical Co., Ltd.): 3%) thereto with a small animal general anesthesia machine Soft Lander (Neuroscience Inc.). After anesthesia introduction, the anesthesia was maintained for a long time by supplying thereto a mixed anesthetic gas containing Sevofrane at a concentration reduced to 1.5% (oxygen: 0.3 L/min., laughing gas: 0.7 L/min., Sevofrane: 1.5%). Surgical skills (reference: Yadav, S. S. et al., Transplantation 65, 1433-1436 (1998)) shown below were used to prepare model animals with local ischemia-reperfusion injury in the liver. The model animals were examined by hematoxylin-eosin staining (H&E staining) for tissue degeneration in the ischemic liver and hepatic parenchymal cell death induced by ischemia-reperfusion injury.
The belly was opened in the middle thereof. Three canals, portal vein, hepatic artery, and bile duct, leading to the left robe of the liver were together blocked (ischemia start) with a micro-clamp (FD562; Aesculap, South San Francisco, Calif., USA). The belly was sutured with a silk thread. After 90 minutes, the belly was opened again by removing the silk thread used for suture, and the micro-clamp was removed (reperfusion start). The belly was sutured again with a silk thread. The left robe of the liver was reperfused for 3 hours under anesthesia. […] After reperfusion for 3 hours, the left robe of the liver (ischemic liver) was excised and cut into fine strip slices. The slices were fixed by dipping in 10% neutral buffered formalin solution (Wako Pure Chemical Industries, Ltd.).
The fixed ischemic liver slices were subjected to dehydration with ethyl alcohol, dehydrating agent removal with xylene, and paraffin infiltration in an automatic embedding apparatus (SAKURA, Tissue-Tek VIPS). The paraffin-embedded ischemic liver was cut into slices of 3 μm to 5 μm in thickness with a sledge microtome. The slices were attached to slide glass. […]

PC12 cells [15] = conditions: antimycin A 10 μg/ml, 0.6 mM hydrogen, 30 minutes
Method: as §7, §8

[16] = system: cerebral ischemia-reperfusion injury
Method: In cerebral ischemia, diverse mechanisms generate reactive oxygen species, and .OH is detected after ischemia-reperfusion. Rats were rendered locally ischemic for 90 minutes by mild cerebral artery occlusion and subsequently reperfused for 30 minutes. […] FK506 (1 mg/kg of body weight) was administered into the blood once immediately before reperfusion. Edaravone (3 mg/kg of body weight) was administered into the blood twice immediately before reperfusion and immediately after reperfusion. After anesthesia, the rats were maintained at 20° C. under usual air. […] After 1 day of mild cerebral artery occlusion, the brain was sliced, and the slices were stained with 2,3,5-triphenyltetrazolium salt (TTC) capable of serving as a substrate in mitochondrial respiration process. After 1 week, the animals were put under anesthesia. Then, the brain was rapidly excised and fixed with 10% formalin. The paraffin-embedded brain was sliced into a thickness of 6 μm, and the slices were stained with hematoxylin-eosin. Moreover, VECSTAIN ABC Kit was used in staining with antibodies. Anti-Iba-I antibodies were purchased from Wako Pure Chemical Industries, Ltd. Image analysis software (Mac Scope ver. 2.55; Mitsuya Shoji) was used in slide analysis. All the animal experiments were conducted according to the guideline of the animal commission of Nippon Medical School.
An infarct volume was estimated by measuring visually white regions in the brain. […] For comparison, two compounds were further tested. […] The other compound was FK506, which is under clinical trial for cerebral infarction in USA. […] The brain infarct volume was calculated as a total sum of all the slices according to the equation: infarct area×thickness.
Rats were rendered locally ischemic for 90 minutes by mild cerebral artery occlusion and subsequently reperfused for 30 minutes. […] The brain was cut by coronal section into 6 slices after 1 day of mild cerebral artery occlusion, and the slices were stained with TTC.
The photographs of FIG. 28 are the staining images of 3 different slices obtained by this method. […] An average value of infarct volumes and standard deviation were determined from the values of 6 animals in each group. *P<0.05, **P<0.01, ***P<0.001.
The brain was fixed after 3 days or 7 days of mild cerebral artery occlusion and embedded in paraffin. The coronal sections of 6 μm in thickness were stained with anti-8-OH-G, anti-HNE, or anti-GFAP antibodies. The left photographs of FIGS. 31 to 33 show the same regions adjacent to occlusion in the temporal cortical regions. The scale bar denotes 100 μm.
In the staining experiment, the brain was fixed after 3 days or 7 days of mild cerebral artery occlusion and embedded in paraffin. The coronal sections were stained with each antibody. The photographs of FIG. 34 show the central regions of occlusion in the temporal cortical regions. The scale bar of FIG. 34 denotes 200 μm. The scale bar in the inserted photographs of FIG. 34 denotes 100 μm. In FIG. 35, an average value of the number of Iba-1-positive cells in a certain field and standard deviation were determined from 6 animals in each group. *P<0.05. […] Microglia accumulation serves as an indicator for a brain disorder.

[17] = 2% hydrogen gas inhalation vs non-inhalation
[18] = brain fixed after 3 days or 7 days of occlusion

Cc1c(C)c2c(c(C)c1O)CC[C@@](C)(CCC[C@H](C)CCC[C@H](C)CCCC(C)C)O2 [alpha-tocopherol, reference compound]
number of viable cells / inhibitory effects on cell death (PC12 cells [1]; antimycin A 10 μg/mL, 24 hours, vs hydrogen-free medium, alpha-tocopherol 100 μM (Example 5)): observed, albeit weaker than those of hydrogen | number of viable cells / inhibitory effects on cell death (PC12 cells [2]; menadione 3 μM, 24 hours, vs hydrogen-free medium, alpha-tocopherol 100 μM (Example 5)): significant effects on menadione were not observed

[HH] [hydrogen molecules, hydrogen]
reduction of O2^−. [3]: do not reduce | reduction of oxidized cytochrome c containing trivalent heme iron (cytochrome c): does not reduce | reduction of NAD^+ [4]: does not reduce | deletion in mitochondrial DNA (PCR) (skeletal muscle; rats after exercise that ingested hydrogen (inhalation or intraperitoneal saline containing supersaturated hydrogen)): reduced | damage in the muscular tissues (H&E staining) (skeletal muscle; rats run 40 m/min. for 20 minutes, then air containing 10% hydrogen gas for 30 minutes): alleviate damage in the muscular tissues | reduction of Fe^3+ [5]: does not reduce | durability of cell death inhibitory effects (time course) (PC12 cells [1]; antimycin A 30 μg/mL, 0, 1, 2 and 3 days): confirmed even on the 2nd day or later | hydrogen concentration at which cell death could still be inhibited significantly (PC12 cells [1]; antimycin A 30 μg/mL, 24 hours, approximately 1/16 of the saturated hydrogen concentration): 50 µM | amount of hydrogen that can be dissolved per L of water [6]: approximately 17.5 mL per L | increase in the amount of .OH (HPF fluorescence) ([7]; 10 minutes after termination of 60 minutes oxygen-glucose-deficient state, 95% hydrogen/5% carbon dioxide vs nitrogen): not observed in the presence of hydrogen | number of viable neuronal cells ([7]; 1 day after oxygen-glucose deficiency, anti-TUJ-1 staining): increased the number of viable neuronal cells | viability of neuronal cells (cell count, modified MTT method) ([7]; 1 day after oxygen-glucose-deficient state): increased their viabilities | durability of cell death inhibitory effects (time course) (PC12 cells [2]; menadione 10 μM, 0, 1, 2 and 3 days): confirmed even on the 2nd day or later | hydroxyl radicals (.OH) levels [8]: reduce hydroxyl radicals (.OH) levels | accumulation of 4-hydroxy-2-nonenal (HNE) (PC12 cells [9]): inhibition of accumulation | oxidized guanine (8-OH-G) level (PC12 cells [9]): protected nuclear DNA from oxidation | reduction of Cu^2+ [10]: does not reduce | reduction of nitrogen monoxide [11]: do not reduce | reduction of FAD [12]: does not reduce | reduction of hydrogen peroxide [13]: do not reduce | Degenerated region in liver tissues (%) ([14]; hydrogen gas flow rate 0.04 L/min., from 10 minutes before reperfusion start through whole reperfusion period (280 minutes in total)): 26% | Degenerated region in liver tissues (%) ([14]; hydrogen gas flow rate 0.1 L/min., from 5 minutes before reperfusion start to 5 minutes after reperfusion start (10 minutes in total)): 20% | Degenerated region in liver tissues (%) ([14]; hydrogen gas flow rate 0.2 L/min., from 5 minutes before reperfusion start to 5 minutes after reperfusion start (10 minutes in total)): 10% | .OH levels (HPF fluorescence) (PC12 cells [15]): reduced .OH levels | body temperature [16, 17]: improved | body weight [16, 17]: improved | brain infarct volume (TTC staining) ([16]; 2% hydrogen gas inhaled only during ischemia but not during reperfusion, 1 day): not reduced | most effective hydrogen concentration for reduction of infarct volume ([16]; 1 day after occlusion, inhaled gas 0 to 4% (v/v) hydrogen): 2% | brain infarct volume (TTC staining) ([16]; 1 day after occlusion, inhaled hydrogen 0 to 4% (v/v) for 120 minutes in total): Hydrogen concentration-dependent reductions in infarct volume were obviously observed | alleviation of an oxidative disorder compared with Edaravone and FK506 ([16]; Edaravone 6 mg/kg of body weight, FK506 1 mg/kg of body weight): more effective for the alleviation of an oxidative disorder than any of the other compounds tested | difference in infarct volume between hydrogen-treated and hydrogen-untreated group (hematoxylin-eosin) ([16]; after 1 week of occlusion): more significant after 1 week | oxidation marker stainings (anti-8-OH-G, anti-HNE, anti-GFAP positive cells) [16, 18]: significantly reduced | staining with microglia-specific anti-Iba-I antibodies [16, 18]: significantly reduced
